Experimental data published in patent US20200032271A1, “COMBINATION THERAPY WITH LIPOSOMAL ANTISENSE OLIGONUCLEOTIDES” (Bio-Path Holdings, Inc., priority 2016, published 2020).
“And” between values parts separate entries of the source, which are not always exact repeats. Identical values can stand only once. [PEt] = P-ethoxy (ethyl phosphotriester) internucleoside linkage

Assays:
[1] = system: acute myeloid leukemia (AML) cells; test: Cytarabine cytotoxicity after BP1001 pretreatment; format: cell-based; details: preclinical studies
[2] = system: Grb2; test: Flow cytometry of Grb2 levels in circulating leukemia cells of patients; format: in vivo, human; details: for Grb2 decrease (%) (Day 15) / Grb2 decrease (%) (Day 22 or end-of-treatment): individual subjects
Description: (§1) Flow cytometry was used to determine the levels of Grb2 and pErk proteins in the circulating leukemia cells of patients who were on BP1001 single agent therapy, and were reported as median fluorescent intensity (MFI). MFI of Grb2 and pErk during treatment were compared to those at baseline.
Peripheral blood was collected from patients in cohorts 3, 4, 5, and 6, before being dosed on Cycle 1 days 1, 8, 15 and 22, and Cycle 2 day 1. White blood cells were isolated from peripheral blood using BD Vacutainer CPT cell preparation tubes with sodium heparin (BD Dickinson), fixed and stored in −80° C. freezer. Flow cytometry was utilized to determine Grb2 and phosphorylated Erk1,2 (pErk) levels in CD33-expressing cells using a validated method (Flow Contract Site Laboratory, Bothell, Wash., USA).
as §1, with “utilized” for “used”, “baseline (Table 7).” for “baseline.”

[3] = rat, in vivo, iv
[4] = Phase I study: dose-limiting toxicity and maximum tolerated dose; format: in vivo, human
Experimental: A BP1001 phase I study was conducted in two parts: (A) BP1001 dose escalation and (B) BP1001 with concurrent low-dose cytarabine (LDAC) dose expansion. For dose escalation (Part A), a standard “3+3” design was used in which successive cohorts of 3 or more patients with hematologic malignancies were treated at escalating doses from 5 to 135 mg/m^2 of BP1001 until a maximum tolerated dose (MTD) was identified. For the dose expansion portion of the study (Part B), two successive subsets of patients with AML were treated with BP1001 at the MTD (or highest tested dose [HTD]) and one level below the MTD (or HTD) in combination with a fixed dose of LDAC to further characterize safety and biological effect, as well as identify the recommended phase 2 dose. Both parts of the study employed an open-label, sequential, dose-escalation design to assess safety, tolerability and toxicity, pharmacokinetics (PK), tumor response, and anti-leukemic activity. A total of 39 patients were treated in the study: AML (n=30), CML-BP (n=5), and MDS (n=4). Of 39 patients, 27 were evaluable; 12 failed completion of a full cycle due to disease progression and were replaced per protocol. Only one patient on 5 mg/m^2 experienced a dose-limiting toxicity (DLT), grade 3 mucositis and hand-foot syndrome, while on high-dose hydroxyurea for proliferative CML-BP. The study medication could not be ruled out as a contributing factor, so this event was reported as a DLT. Upon expansion to six patients, no other patient developed a DLT. No other drug related toxicity has been observed in any of the patients treated. […] The HTD for BP1001 is 90 mg/m^2.
The study was designed as a standard 3+3 dose escalation trial for the assessment of safety, pharmacokinetics and efficacy of BP1001 in adult patients diagnosed with refractory/relapsed Philadelphia chromosome positive CML or ALL, AML, or MDS. Cohorts of three patients were enrolled at each dose level. The initial dose of BP1001 was 5 mg/m^2 (Cohort 1). If one patient developed a grade 3 or higher toxicity, three more patients were accrued at that dose level. […]

[5] = in vivo

## BP1001: liposome-incorporated P-ethoxy antisense oligodeoxynucleotide (5′-ATATTTGGCGATGGCTTC-3′, SEQ ID NO: 1) specific to grb2 mRNA, in neutral DOPC liposomes (DNA, all [PEt], methylation of C not given here; incorporated in neutral DOPC liposomes)
[1]
  effect of pretreatment on cytarabine cytotoxicity: enhances cytarabine cytotoxicity
[2]; cohort 3, 20 mg/m^2
  Grb2 decrease (%) (Day 15): 0% (2×) and 56%
  Grb2 decrease (%) (Day 22 or end-of-treatment): 28% and 47% and 57%
[2]; cohort 4, 40 mg/m^2
  Grb2 decrease (%) (Day 15): 63% and 47%
  Grb2 decrease (%) (Day 22 or end-of-treatment): 54% and 0% and 34%
[2]; cohort 5, 60 mg/m^2
  Grb2 decrease (%) (Day 15): 0% and 57% and 54%
  Grb2 decrease (%) (Day 22 or end-of-treatment): 30% and 65% and 43%
[2]; cohort 6, 90 mg/m^2
  Grb2 decrease (%) (Day 15): 0% and 85% and 63%
  Grb2 decrease (%) (Day 22 or end-of-treatment): 0% and 91% and 40%
[2]; last measured sample
  average decrease in Grb2 levels: 49%
[2]; last measured sample (end of treatment or cycle 1 day 22), MFI vs baseline
  samples with ≥25% decrease of Grb2 levels: 10 out of 12
[3]
  t1/2α (initial distribution phase): 5.16 ± 0.3 min
[3]; 10 mg/kg
  Area under the concentration curve (AUC): 5.4 ± 0.9 mg·min/mL
  immediate apparent volume of distribution: 36.42 ± 1.88 mL
  residence time: 309.6 ± 21.5 min
  terminal phase half-life (t1/2β): 3.76 ± 0.22 h
[4]; 5 mg/m^2, patient on high-dose hydroxyurea for CML-BP, no other DLT after expansion to six
  patients with dose-limiting toxicity (grade 3 mucositis and hand-foot syndrome): one
[4]; patients
  highest tested dose (HTD): 90 mg/m^2
[4]; patients, 5 to 90 mg/m^2 i.v. twice weekly
  maximum tolerated dose (MTD): not identified
[5]
  Infections and infestations ≥Grade 3, total events: (9/9)
  Infections and infestations ≥Grade 3, total patients: (9/9)
